Entries after “also recorded” stand apart in the source; their conditions may differ.
Tests used:
[1] = weight loss product rating; cited from earlier work
[2] = system: leptin receptor deficient (db/db) mice; assay: Withaferin A to leptin receptor deficient (db/db) mouse model of obesity; format: in vivo; conditions: 2 mg/kg once a day
Experimental: To explore whether Withaferin A's effect is leptin dependent, Withaferin A (2 mg/kg, once a day, in 2Sμ1 DMSO) was administered to leptin receptor deficient (db/db) mouse model of obesity.

[3] = system: HFD-fed obese C57Bl/6J mice; assay: Withaferin A daily i.p. to HFD-fed obese mice for three weeks: body weight, food intake, fasting blood glucose; format: in vivo, mouse
Experimental: To investigate whether Withaferin A can act as an anti-obesity drug by increasing leptin sensitivity and reducing appetite, C57Bl/6J mice were placed on a high fat diet (HFD; Research Diets, D12451, 45 kcal % fat) feeding for 16 weeks. After establishment of obesity and leptin resistance, mice were administered Withaferin A (at 2 mg/kg, in 25 μl DMSO, once per day) and vehicle (DMSO, 25 n1) with intraperitoneal (i.p.) injection. The animals had free access to food and water unless otherwise stated. In all experiments, three days prior to drug administration, the animals went through an acclimation period where they were given DMSO (25 n1) to reduce the effect of stress created by i.p. injection.
Following three days acclimation, mice were administered Withaferin A daily i.p. injections at 2 mg/kg for three weeks in 25 μl of DMSO as vehicle, whereas the control group received the same volume of DMSO. […] At day 21 of the experiment, the 6-hour fasting blood glucose of mice was measured.

HFD-fed obese mice [4] = assay: Insulin Tolerance Test (ITT); format: in vivo, mouse; conditions: 2 mg/kg i.p., day 16, insulin 1 IU/kg i.p.
Experimental: (§1) In order to analyze the effect of Withaferin A on glucose homeostasis, we performed Glucose Tolerance Test (GTT) and Insulin Tolerance Test (ITT) after chronic i.p. Withaferin A treatment (2 mg/kg). For GTT, mice were fasted overnight following one week of Withaferin A treatment and received an i.p. injection of D-glucose (1 g/kg) in the morning. For ITT, after 16 days of Withaferin A treatment, mice were fasted for 6 hours (from 8 a.m. to 2 p.m.) and recombinant human insulin (1 IU/kg from Eli Lilly) was injected intraperitoneally. In both procedures, blood glucose was measured from tail vein blood at 0, 15, 30, 60, 90 and 120 minutes after injection.

[5] = system: 10-week old lean mice on chow diet; assay: Withaferin A i.p. to lean mice on chow diet for three weeks; format: in vivo, mouse; conditions: 2 mg/kg i.p.
Experimental: Withaferin A was administered to 10-week old lean mice on chow diet at 2 mg/kg for three weeks by i.p. injections.

HFD-fed obese mice [6] = assay: Leptin sensitivity: overnight food intake after acute Withaferin A and leptin injection, HFD-fed obese mice; format: in vivo, mouse
Experimental: (§2) Therefore is it possible that Withaferin A exerts the anti-obesity effects through increasing the leptin sensitivity in the brains of the HFD-fed obese mice. To test this hypothesis, leptin was administered to Withaferin A or vehicle treated HFD-fed obese animals. To avoid any possible leptin sensitizing effect of weight loss or decreased food intake created by Withaferin A administration, leptin injections were carried out upon acute Withaferin A treatment. Lean and HFD-fed obese mice were divided into four groups: 1) DMSO+saline, 2) DMSO+leptin, 3) Withaferin A+saline, and 4) Withaferin A+leptin (n=6 per group). The mice were injected (i.p.) with 1.5 mg/kg Withaferin A or vehicle (DMSO) one hour before dark cycle (day zero). 24 hours later, the second and final injection of DMSO or Withaferin A was administered. 30 minutes prior to dark cycle, mice received a single i.p. injection of leptin (1 mg/kg for HFD mice, dissolved in saline; 5 mg/kg for lean mice), or saline. Over night food intakes were recorded (HFD, FIG. 4A; Chow FIG. 4B). […] In addition, HFD-fed obese mice were resistant to the food intake reducing effect of leptin unless they received Withaferin A (FIG. 4A).

HFD-fed mice = assay: Body composition by Dual-Emission X-ray Absorptiometry (DEXA); format: in vivo, mouse; conditions: i.p. 2 mg/kg, two weeks
Experimental: To analyze the change in body composition during Withaferin A treatment (i.p. 2 mg/kg), lean mass and fat mass of mice with Dual-Emission X-ray Absorptiometry (DEXA) were measured.

HFD-fed obese mice [7] = assay: Glucose Tolerance Test (GTT); format: in vivo, mouse; conditions: 2 mg/kg i.p., one week, D-glucose 1 g/kg i.p., vs vehicle
Experimental: as §1

lean mice = assay: Leptin sensitivity: overnight food intake after acute Withaferin A and leptin injection, lean mice; format: in vivo, mouse
Experimental: as §2

[Cr] [Chromium]
Safety [1]: Likely safe

CC1=C(CO)C(=O)O[C@@H]([C@@H](C)[C@H]2CC[C@H]3[C@@H]4C[C@H]5O[C@]56[C@@H](O)C=CC(=O)[C@]6(C)[C@H]4CC[C@]23C)C1 [Withaferin A]
body weight [2]: continued to increase similar to the vehicle treated group
food intake [2]: did not show a decrease
blood glucose levels ([2]; end of 3-week treatment): tendency to decrease but did not reach statistically significant levels
6-hour fasting blood glucose ([3]; 2 mg/kg i.p. daily, day 21, 2 mg/kg): decreases blood glucose; also recorded: robust decrease
food intake ([3]; 2 mg/kg i.p. daily, three days average within first week): significantly decreased
body weight ([3]; 2 mg/kg i.p. once per day, three weeks, vs DMSO vehicle): significantly decreased
insulin sensitivity (ITT) (HFD-fed obese mice [4]): improved insulin sensitivity
blood glucose levels ([5]; after 3 weeks of treatment): not altered
body weight ([5]; three weeks): failed to induce bodyweight loss
food intake ([5]; three weeks): failed to induce bodyweight loss or suppress food intake
anorectic action of leptin (HFD-fed obese mice [6]; HFD mice, Withaferin A 1.5 mg/kg i.p. before leptin 1 mg/kg): significantly potentiated
decrease in food intake upon leptin injection (HFD-fed obese mice [6]; HFD-fed obese mice, Withaferin A 1.5 mg/kg i.p. + leptin 1 mg/kg i.p., compared to vehicle treated non-leptin group): 75%
overnight food intake (HFD-fed obese mice [6]; HFD-fed obese mice, Withaferin A 1.5 mg/kg i.p. alone, no exogenous leptin): decreased the food intake
fat percentage (HFD-fed mice): decreased significantly
lean mass (HFD-fed mice): did not change
glucose homeostasis (AUC of GTT) (HFD-fed obese mice [7]): significantly improved
decrease in food intake upon leptin injection (lean mice; lean mice, Withaferin A 1.5 mg/kg i.p. + leptin 5 mg/kg i.p., compared to vehicle treated non-leptin group): approximately 50%
anorectic action of leptin (lean mice; lean mice, Withaferin A 1.5 mg/kg i.p. before leptin 5 mg/kg): significantly potentiated
overnight food intake (lean mice; lean mice, Withaferin A 1.5 mg/kg i.p. two injections, without leptin): did not change

Conjugated linoleic acid
Effectiveness [1]: Possibly
Safety [1]: Possibly safe

leptin: peptide hormone, afferent signal in a negative feedback loop regulating food intake and body weight
food intake reducing effect of leptin (HFD-fed obese mice [6]; HFD-fed obese mice without Withaferin A, leptin 1 mg/kg single i.p. injection): resistant
overnight food intake (lean mice; vehicle treated lean mice, leptin 5 mg/kg single i.p. injection): suppressed food intake

From patent US20160375039A1, “COMPOUNDS FOR THE TREATMENT OF OBESITY AND METHODS OF USE THEREOF” (The Children's Medical Center Corporation, priority 2013, published 2016)
